# Source: ChEMBL document CHEMBL1201862, “PubChem BioAssay data set” (2004)
#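 Test compounds were applied to cells in 96-well plates for 48 hours at 5 doses. Abbreviation: GI50, concentration required for 50% inhibition of growth.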 The source made the active and inactive calls. Cut-off read from the data, not from the text of the source: active = GI50 up to about 1.1 µM and inactive = higher.
# Assays:
# Experiment in all cases: inhibition of tumour cell growth, NCI panel, 48 h
# EKVX = test system: EKVX
# MDA-MB-435 = test system: MDA-MB-435
# HCT-116 = test system: HCT-116
# KM12 = test system: KM12
# UACC-257 = test system: UACC-257
# RPMI-8226 = test system: RPMI-8226
# SK-MEL-2 = test system: SK-MEL-2
# PC-3 = test system: PC-3
# ACHN = test system: ACHN
# LOX IMVI = test system: LOX IMVI
# IGROV-1 = test system: IGROV-1
# CCRF-CEM = test system: CCRF-CEM
# MOLT-4 = test system: MOLT-4
# OVCAR-5 = test system: OVCAR-5
# SK-MEL-5 = test system: SK-MEL-5
# K562 = test system: K562
# NCI-H460 = test system: NCI-H460
# SK-MEL-28 = test system: SK-MEL-28
# HCC 2998 = test system: HCC 2998
# SF-295 = test system: SF-295
# 786-0 = test system: 786-0
# A549 = test system: A549
# SF-539 = test system: SF-539
# RXF 393 = test system: RXF 393
# HCT-15 = test system: HCT-15
# SF-268 = test system: SF-268
# COLO 205 = test system: COLO 205
# MDA-MB-231 = test system: MDA-MB-231
# Malme-3M = test system: Malme-3M
# HOP-62 = test system: HOP-62
# M14 = test system: M14
# SNB-19 = test system: SNB-19
# HT-29 = test system: HT-29
# NCI/ADR-RES = test system: NCI/ADR-RES
# A498 = test system: A498
# Hs-578T = test system: Hs-578T
# TK-10 = test system: TK-10
# SN12C = test system: SN12C
# SK-OV-3 = test system: SK-OV-3
# UACC-62 = test system: UACC-62
# OVCAR-8 = test system: OVCAR-8
# U-251 = test system: U-251
# OVCAR-4 = test system: OVCAR-4
# MCF7 = test system: MCF7
# SNB-75 = test system: SNB-75
# NCI-H226 = test system: NCI-H226
# BT-549 = test system: BT-549
# NCI-H522 = test system: NCI-H522
# CAKI-1 = test system: CAKI-1
# SW-620 = test system: SW-620
# HOP-92 = test system: HOP-92
# DU-145 = test system: DU-145
# OVCAR-3 = test system: OVCAR-3
# HL-60 = test system: HL-60
# NCI-H23 = test system: NCI-H23
# UO-31 = test system: UO-31
# T47D = test system: T47D
smiles,measurement,setting,value
Cc1ccc(-c2c(C#N)c(-c3ccccc3)c(C#N)c(=O)n2NS(=O)(=O)c2ccc(C)cc2)cc1,GI50,EKVX,72.1 µM (inactive)
same,GI50,MDA-MB-435,48.9 µM (inactive)
same,GI50,HCT-116,22.9 µM (inactive)
same,GI50,KM12,38.5 µM (inactive)
same,GI50,UACC-257,56.1 µM (inactive)
same,GI50,RPMI-8226,2.75 µM (inactive)
same,GI50,SK-MEL-2,35.7 µM (inactive)
same,GI50,PC-3,35 µM (inactive)
same,GI50,ACHN,33.3 µM (inactive)
same,GI50,LOX IMVI,19.8 µM (inactive)
same,GI50,IGROV-1,48.1 µM (inactive)
same,GI50,CCRF-CEM,19.6 µM (inactive)
same,GI50,MOLT-4,12.9 µM (inactive)
same,GI50,OVCAR-5,> 100 µM (inactive)
same,GI50,SK-MEL-5,12.6 µM (inactive)
same,GI50,K562,40.3 µM (inactive)
same,GI50,NCI-H460,15.7 µM (inactive)
same,GI50,SK-MEL-28,52.2 µM (inactive)
same,GI50,HCC 2998,19.9 µM (inactive)
same,GI50,SF-295,24 µM (inactive)
same,GI50,786-0,44.6 µM (inactive)
same,GI50,A549,34.4 µM (inactive)
same,GI50,SF-539,13.3 µM (inactive)
same,GI50,RXF 393,62.2 µM (inactive)
same,GI50,HCT-15,22.2 µM
same,GI50,SF-268,> 100 µM (inactive)
same,GI50,COLO 205,95.9 µM (inactive)
same,GI50,MDA-MB-231,> 100 µM (inactive)
same,GI50,Malme-3M,> 100 µM (inactive)
same,GI50,HOP-62,50.4 µM (inactive)
same,GI50,M14,31 µM (inactive)
same,GI50,SNB-19,5.56 µM (inactive)
same,GI50,HT-29,50.6 µM (inactive)
same,GI50,NCI/ADR-RES,> 100 µM (inactive)
same,GI50,A498,27.4 µM (inactive)
same,GI50,Hs-578T,> 100 µM (inactive)
same,GI50,TK-10,40.7 µM (inactive)
same,GI50,SN12C,61.2 µM (inactive)
same,GI50,SK-OV-3,79.8 µM (inactive)
same,GI50,UACC-62,23.3 µM (inactive)
same,GI50,OVCAR-8,52.7 µM (inactive)
same,GI50,U-251,45.2 µM (inactive)
same,GI50,OVCAR-4,45.7 µM (inactive)
same,GI50,MCF7,35.4 µM (inactive)
same,GI50,SNB-75,> 100 µM (inactive)
same,GI50,NCI-H226,83.9 µM (inactive)
same,GI50,BT-549,70.1 µM (inactive)
same,GI50,NCI-H522,56.9 µM (inactive)
same,GI50,CAKI-1,48.4 µM (inactive)
same,GI50,SW-620,14.8 µM (inactive)
same,GI50,HOP-92,20.8 µM (inactive)
Cc1cc(OCc2nnc3sc(NC(=O)c4ccccc4)nn23)ccc1Cl,GI50,EKVX,31.1 µM (inactive)
same,GI50,MDA-MB-435,22 µM (inactive)
same,GI50,HCT-116,28.7 µM (inactive)
same,GI50,DU-145,24.4 µM (inactive)
same,GI50,KM12,21.5 µM (inactive)
same,GI50,UACC-257,37.7 µM (inactive)
same,GI50,RPMI-8226,26.7 µM (inactive)
same,GI50,SK-MEL-2,28.8 µM (inactive)
same,GI50,PC-3,33.7 µM (inactive)
same,GI50,ACHN,20.5 µM (inactive)
same,GI50,LOX IMVI,30.1 µM (inactive)
same,GI50,IGROV-1,25.4 µM (inactive)
same,GI50,CCRF-CEM,43.3 µM (inactive)
same,GI50,MOLT-4,55.5 µM (inactive)
same,GI50,OVCAR-3,30.7 µM (inactive)
same,GI50,OVCAR-5,56.8 µM (inactive)
same,GI50,SK-MEL-5,32.4 µM (inactive)
same,GI50,K562,94.2 µM (inactive)
same,GI50,NCI-H460,39.1 µM (inactive)
same,GI50,SK-MEL-28,67.5 µM (inactive)
same,GI50,HCC 2998,26.7 µM (inactive)
same,GI50,SF-295,36.6 µM (inactive)
same,GI50,HL-60,34.6 µM (inactive)
same,GI50,786-0,33.1 µM (inactive)
same,GI50,A549,33.1 µM (inactive)
same,GI50,SF-539,> 100 µM (inactive)
same,GI50,RXF 393,30.6 µM (inactive)
same,GI50,HCT-15,38.7 µM
same,GI50,SF-268,45 µM (inactive)
same,GI50,COLO 205,53.5 µM (inactive)
same,GI50,MDA-MB-231,42.4 µM (inactive)
same,GI50,Malme-3M,21.4 µM (inactive)
same,GI50,HOP-62,20.1 µM (inactive)
same,GI50,M14,27.4 µM (inactive)
same,GI50,SNB-19,33.9 µM (inactive)
same,GI50,HT-29,38.4 µM (inactive)
same,GI50,NCI/ADR-RES,37 µM (inactive)
same,GI50,A498,27.2 µM (inactive)
same,GI50,Hs-578T,32.1 µM (inactive)
same,GI50,NCI-H23,30.7 µM (inactive)
same,GI50,TK-10,62.4 µM (inactive)
same,GI50,UO-31,19 µM (inactive)
same,GI50,SN12C,30.8 µM (inactive)
same,GI50,SK-OV-3,59.6 µM (inactive)
same,GI50,UACC-62,33.3 µM (inactive)
same,GI50,OVCAR-8,20.7 µM (inactive)
same,GI50,U-251,33.3 µM (inactive)
same,GI50,OVCAR-4,> 100 µM (inactive)
same,GI50,MCF7,30.3 µM (inactive)
same,GI50,NCI-H226,> 100 µM (inactive)
same,GI50,BT-549,41.7 µM (inactive)
same,GI50,NCI-H522,30.6 µM (inactive)
same,GI50,CAKI-1,18 µM (inactive)
same,GI50,SW-620,> 100 µM (inactive)
same,GI50,HOP-92,17.4 µM (inactive)
same,GI50,T47D,44.4 µM (inactive)
